Measurements: PubChem BioAssay AID1963424 (Molecular Pharmacology Branch, DTP, NCI, 2024)

Test system: 327498-153-R-J2-PDC complex spheroid growth, % test/control
Test: Anticancer human tumor 327498-153-R-J2-PDC patient-derived uterine carcinosarcoma cell line growth inhibition [Asc]
Settings: for IC50: curve of first compound; for viability, T/C: stronger effect = lower value
Summary of the method: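 Tumor cells were grown as multicellular spheroids with stromal HUVEC and mesenchymal stem cells and treated singly or in combination. Concentrations fell in half-log steps from the clinical Cmax, or from 10 microM where none was known.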

[1] = second compound 0.03 µM, first compound 0.00316 µM
[2] = second compound 0.03 µM, first compound 0.01 µM
[3] = second compound 0.03 µM, first compound 0.0316 µM
[4] = second compound 0.03 µM, first compound 0.1 µM
[5] = second compound 0.0949 µM, first compound 0.00316 µM
[6] = second compound 0.0949 µM, first compound 0.01 µM
[7] = second compound 0.0949 µM, first compound 0.0316 µM
[8] = second compound 0.0949 µM, first compound 0.1 µM
[9] = second compound 0.3 µM, first compound 0.00316 µM
[10] = second compound 0.3 µM, first compound 0.01 µM
[11] = second compound 0.3 µM, first compound 0.0316 µM
[12] = second compound 0.3 µM, first compound 0.1 µM
[13] = second compound 0.949 µM, first compound 0.00316 µM
[14] = second compound 0.949 µM, first compound 0.01 µM
[15] = second compound 0.949 µM, first compound 0.0316 µM
[16] = second compound 0.949 µM, first compound 0.1 µM
[17] = second compound 3 µM, first compound 0.00316 µM
[18] = second compound 3 µM, first compound 0.01 µM
[19] = second compound 3 µM, first compound 0.0316 µM
[20] = second compound 3 µM, first compound 0.1 µM
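Note: spheroids exposed to compound for 7 days after 3 days of growth.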
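Throughout, for viability, T/C: 100% = DMSO vehicle control wells.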

| Structure (SMILES) | IC50 (second compound 0.03 µM) [nM] | IC50 (second compound 0.0949 µM) [nM] | IC50 (second compound 0.3 µM) [nM] | IC50 (second compound 0.949 µM) [nM] | IC50 (second compound 3 µM) [nM] | viability, T/C [1] [%] | viability, T/C [2] [%] | viability, T/C [3] [%] | viability, T/C [4] [%] | viability, T/C [5] [%] | viability, T/C [6] [%] | viability, T/C [7] [%] | viability, T/C [8] [%] | viability, T/C [9] [%] | viability, T/C [10] [%] | viability, T/C [11] [%] | viability, T/C [12] [%] | viability, T/C [13] [%] | viability, T/C [14] [%] | viability, T/C [15] [%] | other results |
| --- | --- | --- | --- | --- | --- | --- | --- | --- | --- | --- | --- | --- | --- | --- | --- | --- | --- | --- | --- | --- | --- |
| COc1c(OCCCN2CCOCC2)ccc2c3n(c(=NC(=O)c4cnc(N)nc4)nc12)CCN3 + CCN1C(C(=O)NC23CCC(C(=O)O)(CC2)CC3)C(c2cccc(Cl)c2F)C2(C(=O)Nc3cc(Cl)ccc32)C12CCCCC2 | 81.8 | 33.5 | < 3.16 | < 3.16 | < 3.16 | 84.5 | 90.5 | 76.5 | 41.8 | 80.3 | 73.3 | 50.4 | 25.6 | 40.1 | 33.8 | 24.4 | 10.8 | 12.2 | 9.4 | 5.86 | viability, T/C (second compound 0.03 µM, first compound 0.316 µM): 21.1%; viability, T/C (second compound 0.03 µM, first compound 1 µM): 5.21%; viability, T/C (second compound 0.0949 µM, first compound 0.316 µM): 12.3%; viability, T/C (second compound 0.0949 µM, first compound 1 µM): 2.62%; viability, T/C (second compound 0.3 µM, first compound 0.316 µM): 6.23%; viability, T/C (second compound 0.3 µM, first compound 1 µM): 0.74%; viability, T/C [16]: 2.63%; viability, T/C (second compound 0.949 µM, first compound 0.316 µM): 1.42%; viability, T/C (second compound 0.949 µM, first compound 1 µM): 0.49%; viability, T/C [17]: 4.48%; viability, T/C [18]: 3.3%; viability, T/C [19]: 2.05%; viability, T/C [20]: 1.31%; viability, T/C (second compound 3 µM, first compound 0.316 µM): 0.47%; viability, T/C (second compound 3 µM, first compound 1 µM): 0.37% |
| NC1CCC(NC2CC2c2ccccc2)CC1 (stereo not given) + CCN1C(C(=O)NC23CCC(C(=O)O)(CC2)CC3)C(c2cccc(Cl)c2F)C2(C(=O)Nc3cc(Cl)ccc32)C12CCCCC2 | > 100 | > 100 | < 0.316 | < 0.316 | < 0.316 | 93.8 | 92.4 | 103 | 97.3 | 83.4 | 84.9 | 83.9 | 87.4 | 43.8 | 39.1 | 49.8 | 43.6 | 15.8 | 11.6 | 14.7 | viability, T/C (second compound 0.03 µM, first compound 0.000316 µM): 103%; viability, T/C (second compound 0.03 µM, first compound 0.001 µM): 94.5%; viability, T/C (second compound 0.0949 µM, first compound 0.000316 µM): 84.3%; viability, T/C (second compound 0.0949 µM, first compound 0.001 µM): 84.4%; viability, T/C (second compound 0.3 µM, first compound 0.000316 µM): 53%; viability, T/C (second compound 0.3 µM, first compound 0.001 µM): 47.9%; viability, T/C (second compound 0.949 µM, first compound 0.000316 µM): 10.8%; viability, T/C (second compound 0.949 µM, first compound 0.001 µM): 12.7%; viability, T/C [16]: 16.5%; viability, T/C (second compound 3 µM, first compound 0.000316 µM): 4.55%; viability, T/C (second compound 3 µM, first compound 0.001 µM): 5.4%; viability, T/C [17]: 2.47%; viability, T/C [18]: 7.42%; viability, T/C [19]: 5.29%; viability, T/C [20]: 4.14% |
